What was measured:
rice seed = assay: Salt tolerance assay: germination of rice seed under high salt environment; type: in vivo
Source text: According to a salt tolerance assay, we measured germination of rice seed under high salt environment to determine effects of the natural brassinolide analogues on the salt tolerance of a plant.
The natural brassinolide analogues, BR1, BR2, BR3, BR4, BR5 and BR6, used herein, were those prepared by the method of Example 1. And BR1, BR2, BR3, BR4, BR5 and BR6 were mixed into a mixture of brassinolide analogues (referred to as “BRs”, in which the weight ratio of BR1:BR2:BR3:BR4:BR5:BR6 is 0.4:0.4:0.4:0.4:0.4:98). Respectively the analogues and the mixture were dissolved into 95% (V/V) ethanol solution, and then diluted with pure water to 1 mg/L, 0.1 mg/L, 0.01 mg/L, 0.001 mg/L and 0.0001 mg/L. In addition, pure water was used as a control. Furthermore, NaCl was added to the above solutions containing different concentrations of the natural brassinolide analogues or pure water respectively, and the concentrations of the salt are 300, 400, 500 and 600 mg/L respectively.
After rice seeds were disinfected by using 5% sodium hypochlorite solution treatment, they were rinsed with distilled water until their pH>7, placed into a petri dish in a dark incubator, and cultured at 30° C.±2° C. by using the above solutions containing different concentrations of the natural brassinolide analogues or pure water for observing the germination and calculating germination rates. The results are shown in tables 4-0˜4-4, which indicate that relative to the control, each of the natural brassinolide analogues and the mixture were capable of increasing germination rates of rice under high salt environment so as to enhance the salt tolerance of a plant; and substantially the enhancement of the germination rates was positively correlated to the concentrations of the natural brassinolide analogues and the mixture.

rice = assay: Rice leaf bending assay (leaf inclination angle); type: in vivo; conditions: for Average angle / Total angle: 48 hr; for Total angle: sum of 20 rice; for Effects on leaf inclination compared among analogues: in the case of high concentrations
Source text: According to a rice leaf bending assay, we measured leaf inclination angle of rice to determine effects of the natural brassinolide analogues on the enhancement of plant development. The larger the leaf inclination angle of rice, the more effects on plant development. The detailed assay procedure is as follows:
The natural brassinolide analogues, BR1, BR2, BR3, BR4, BR5 and BR6, used herein, were those prepared by the method of Example 1. And BR1, BR2, BR3, BR4, BR5 and BR6 were mixed into a mixture of brassinolide analogues (referred to as “BRs”, in which the weight ratio of BR1:BR2:BR3:BR4:BR5:BR6 is 0.4:0.4:0.4:0.4:0.4:98). Respectively the analogues and the mixture were dissolved into 95% (V/V) ethanol solution, and then diluted with pure water to 1 mg/L, 0.1 mg/L, 0.01 mg/L, 0.001 mg/L and 0.0001 mg/L. In addition, pure water was used as a control.
After rice seeds were disinfected by using 5% sodium hypochlorite solution treatment, they were rinsed with distilled water until their pH>7, placed into a petri dish in a dark incubator, and cultured by using water at 30° C.±2° C. for 9 days. Then the nine-day-old etiolated seedlings of rice were cut around the center of the base of second leaf to segments with 1 cm leaf and 1 cm leaf sheath. The leaf segments were floated in distilled water, placed in a dark incubator, cultured at 30° C.±2° C. for 24 hr, and then dried by a filter paper. The dried leaf segments were respectively immersed in the above solutions containing different concentrations of the natural brassinolide analogues or pure water, and cultured in a dark incubator at 30° C.±2° C. for 48 hr. Every solution or pure water contained the leaf segments from 20 rice. Then the inclination angle between the second leaf and the leaf sheath of the leaf segments was measured by a protractor.

[1] = sample 0.0001 mg/l, salt 300 mg/l
[2] = sample 0.0001 mg/l, salt 400 mg/l
[3] = sample 0.0001 mg/l, salt 500 mg/l
[4] = sample 0.0001 mg/l, salt 600 mg/l
[5] = sample 0.001 mg/l, salt 300 mg/l
[6] = sample 0.001 mg/l, salt 400 mg/l
[7] = sample 0.001 mg/l, salt 500 mg/l
[8] = sample 0.001 mg/l, salt 600 mg/l
[9] = sample 0.01 mg/l, salt 300 mg/l
[10] = sample 0.01 mg/l, salt 400 mg/l
[11] = sample 0.01 mg/l, salt 500 mg/l
[12] = sample 0.01 mg/l, salt 600 mg/l

CC(C)[C@H](C)[C@@H](O)[C@H](O)[C@@H](C)[C@H]1CCC2C3COC(=O)C4C[C@H](O)[C@H](O)C[C@]4(C)C3CC[C@@]21C (some centres unmarked) [BR1] showed a Germination rate (rice seed; [1]) of 51%, a Germination rate (rice seed; [2]) of 48% and a Germination rate (rice seed; [3]) of 42%. It also gave a Germination rate (rice seed; [4]) of 36%, a Germination rate (rice seed; [5]) of 53% and a Germination rate (rice seed; [6]) of 49%. The Germination rate (rice seed; [7]) was 45%, the Germination rate (rice seed; [8]) was 37% and the Germination rate (rice seed; [9]) was 55%. It also gave a Germination rate (rice seed; [10]) of 52%, a Germination rate (rice seed; [11]) of 47% and a Germination rate (rice seed; [12]) of 39%. It also gave a Germination rate (rice seed; sample 0.1 mg/l, salt 300 mg/l) of 58%, a Germination rate (rice seed; sample 0.1 mg/l, salt 400 mg/l) of 52% and a Germination rate (rice seed; sample 0.1 mg/l, salt 500 mg/l) of 49%. It also gave a Germination rate (rice seed; sample 0.1 mg/l, salt 600 mg/l) of 40%, a Germination rate (rice seed; sample 1 mg/l, salt 300 mg/l) of 62% and a Germination rate (rice seed; sample 1 mg/l, salt 400 mg/l) of 55%. For the same molecule, the Germination rate (rice seed; sample 1 mg/l, salt 500 mg/l) was 50%, the Germination rate (rice seed; sample 1 mg/l, salt 600 mg/l) was 42% and the Average angle (rice; 0.0001 mg/l) was 5.34 degree. For the same molecule, the Total angle (rice; 0.0001 mg/l) was 106.8 degree, the Average angle (rice; 0.001 mg/l) was 11.27 degree and the Total angle (rice; 0.001 mg/l) was 225.4 degree. For the same molecule, the Average angle (rice; 0.01 mg/l) was 21.05 degree, the Total angle (rice; 0.01 mg/l) was 421 degree and the Average angle (rice; 0.1 mg/l) was 36.25 degree. For the same molecule, the Total angle (rice; 0.1 mg/l) was 725 degree, the Average angle (rice; 1 mg/l) was 110.75 degree and the Total angle (rice; 1 mg/l) was 2215 degree. For the same molecule, the “Effects on leaf inclination compared among analogues” value (rice) was “more than those of BR2, BR3 and BR4”.

For CC(C)C[C@@H](O)[C@H](O)[C@@H](C)[C@H]1CCC2C3CC(=O)C4C[C@H](O)[C@H](O)C[C@]4(C)C3CC[C@@]21C (some centres unmarked) [BR5], the Germination rate (rice seed; rice seed, sample 0.0001 mg/l, salt (NaCl) 300 mg/l) was 50%, the Germination rate (rice seed; rice seed, sample 0.0001 mg/l, salt (NaCl) 400 mg/l) was 48% and the Germination rate (rice seed; rice seed, sample 0.0001 mg/l, salt (NaCl) 500 mg/l) was 42%. The Germination rate (rice seed; rice seed, sample 0.0001 mg/l, salt (NaCl) 600 mg/l) was 36%, the Germination rate (rice seed; rice seed, sample 0.001 mg/l, salt (NaCl) 300 mg/l) was 52% and the Germination rate (rice seed; rice seed, sample 0.001 mg/l, salt (NaCl) 400 mg/l) was 49%. For the same molecule, the Germination rate (rice seed; rice seed, sample 0.001 mg/l, salt (NaCl) 500 mg/l) was 45%, the Germination rate (rice seed; rice seed, sample 0.001 mg/l, salt (NaCl) 600 mg/l) was 38% and the Germination rate (rice seed; rice seed, sample 0.01 mg/l, salt (NaCl) 300 mg/l) was 56%. The Germination rate (rice seed; rice seed, sample 0.01 mg/l, salt (NaCl) 400 mg/l) was 51%, the Germination rate (rice seed; rice seed, sample 0.01 mg/l, salt (NaCl) 500 mg/l) was 47% and the Germination rate (rice seed; rice seed, sample 0.01 mg/l, salt (NaCl) 600 mg/l) was 39%. For the same molecule, the Germination rate (rice seed; rice seed, sample 0.1 mg/l, salt (NaCl) 300 mg/l) was 58%, the Germination rate (rice seed; rice seed, sample 0.1 mg/l, salt (NaCl) 400 mg/l) was 52% and the Germination rate (rice seed; rice seed, sample 0.1 mg/l, salt (NaCl) 500 mg/l) was 43%. For the same molecule, the Germination rate (rice seed; rice seed, sample 0.1 mg/l, salt (NaCl) 600 mg/l) was 40%, the Germination rate (rice seed; rice seed, sample 1 mg/l, salt (NaCl) 300 mg/l) was 62% and the Germination rate (rice seed; rice seed, sample 1 mg/l, salt (NaCl) 400 mg/l) was 55%. For the same molecule, the Germination rate (rice seed; rice seed, sample 1 mg/l, salt (NaCl) 500 mg/l) was 50%, the Germination rate (rice seed; rice seed, sample 1 mg/l, salt (NaCl) 600 mg/l) was 42% and the Average angle (rice; 0.0001 mg/l) was 3.9 degree. For the same molecule, the Total angle (rice; 0.0001 mg/l) was 78 degree, the Average angle (rice; 0.001 mg/l) was 9.3 degree and the Total angle (rice; 0.001 mg/l) was 186 degree. It also gave an Average angle (rice; 0.01 mg/l) of 20.05 degree, a Total angle (rice; 0.01 mg/l) of 401 degree and an Average angle (rice; 0.1 mg/l) of 35 degree. It also gave a Total angle (rice; 0.1 mg/l) of 700 degree, an Average angle (rice; 1 mg/l) of 110 degree and a Total angle (rice; 1 mg/l) of 2200 degree. The “Effects on leaf inclination compared among analogues” value (rice) was “more than those of BR2, BR3 and BR4”.

Work on CC(C)[C@H](C)[C@@H](O)[C@H](O)[C@@H](C)[C@H]1CCC2C3CC(=O)C4C[C@H](O)CC[C@]4(C)C3CC[C@@]21C (some centres unmarked) [BR4] yielded a Germination rate (rice seed; [1]) of 50%, a Germination rate (rice seed; [2]) of 47% and a Germination rate (rice seed; [3]) of 42%. The Germination rate (rice seed; [4]) was 36%, the Germination rate (rice seed; [5]) was 51% and the Germination rate (rice seed; [6]) was 49%. It also gave a Germination rate (rice seed; [7]) of 43%, a Germination rate (rice seed; [8]) of 37% and a Germination rate (rice seed; [9]) of 55%. The Germination rate (rice seed; [10]) was 52%, the Germination rate (rice seed; [11]) was 47% and the Germination rate (rice seed; [12]) was 39%. It also gave a Germination rate (rice seed; sample 0.1 mg/l, salt 300 mg/l) of 58%, a Germination rate (rice seed; sample 0.1 mg/l, salt 400 mg/l) of 50% and a Germination rate (rice seed; sample 0.1 mg/l, salt 500 mg/l) of 49%. The Germination rate (rice seed; sample 0.1 mg/l, salt 600 mg/l) was 40%, the Germination rate (rice seed; sample 1 mg/l, salt 300 mg/l) was 60% and the Germination rate (rice seed; sample 1 mg/l, salt 400 mg/l) was 55%. It also gave a Germination rate (rice seed; sample 1 mg/l, salt 500 mg/l) of 50%, a Germination rate (rice seed; sample 1 mg/l, salt 600 mg/l) of 41% and an Average angle (rice; 0.0001 mg/l) of 3.8 degree. It also gave a Total angle (rice; 0.0001 mg/l) of 76 degree, an Average angle (rice; 0.001 mg/l) of 6.5 degree and a Total angle (rice; 0.001 mg/l) of 130 degree. It also gave an Average angle (rice; 0.01 mg/l) of 12.25 degree, a Total angle (rice; 0.01 mg/l) of 245 degree and an Average angle (rice; 0.1 mg/l) of 21.4 degree. It also gave a Total angle (rice; 0.1 mg/l) of 428 degree, an Average angle (rice; 1 mg/l) of 64 degree and a Total angle (rice; 1 mg/l) of 1280 degree.

Source: patent publication US9326506B2, “Preparation method, agricultural composition and applications of natural brassinolide analogs” (CHENGDU NEWSUN CROPSCIENCE CO., LTD, priority 2012, dated 2016)
